In PMC10046369, “Low-Affinity/High-Selectivity Dopamine Transport Inhibition Sufficient to Rescue Cognitive Functions in the Aging Rat” (Biomolecules, 2023):

Assays:
Experiment in all cases: biochemical
Design in all cases: KINOMEscan competition binding panel, per cent of control
Settings in all cases: read-out: %Ctrl @ 2800nM
RIOK1 = RIOK1 (Homo sapiens, UniProt Q9BRS2)
Procedure, shortened: (§1)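 Competition binding panel (KINOMEscan) across 450 human kinases and disease-relevant mutants, run to the contractor's standard protocol. Values are % control: (test signal − positive control signal)/(negative control signal − positive control signal) × 100, with lower values indicating stronger binding.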

CAMK1D = CAMK1D (Homo sapiens, UniProt Q8IU85)
Procedure, shortened: as §1

ACVR2B = ACVR2B (Homo sapiens, UniProt Q13705)
ACVR2B, sequence (Q13705 whole entry): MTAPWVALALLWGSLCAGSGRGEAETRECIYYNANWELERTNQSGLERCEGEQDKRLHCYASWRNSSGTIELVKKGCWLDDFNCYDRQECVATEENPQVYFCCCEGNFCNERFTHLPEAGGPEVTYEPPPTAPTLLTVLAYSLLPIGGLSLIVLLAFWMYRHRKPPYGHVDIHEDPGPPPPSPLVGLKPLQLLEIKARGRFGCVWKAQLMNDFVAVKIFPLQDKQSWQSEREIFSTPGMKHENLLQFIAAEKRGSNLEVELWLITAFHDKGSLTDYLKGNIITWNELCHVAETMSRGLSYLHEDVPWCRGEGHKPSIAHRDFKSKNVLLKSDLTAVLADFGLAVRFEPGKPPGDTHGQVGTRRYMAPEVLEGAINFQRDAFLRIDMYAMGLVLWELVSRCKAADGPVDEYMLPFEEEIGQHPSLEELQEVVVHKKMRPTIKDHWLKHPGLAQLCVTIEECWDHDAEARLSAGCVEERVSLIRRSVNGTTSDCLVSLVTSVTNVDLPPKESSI
Procedure, shortened: as §1

[1] = target: T1, ABL1(Q252H)-phosphorylated (Homo sapiens, UniProt P00519, Q252H)
T1 construct: phosphorylated
Procedure, shortened: as §1

MYLK2 = MYLK2 (Homo sapiens, UniProt Q9H1R3)
Procedure, shortened: as §1

[2] = target: T2, RSK2(Kin.Dom.2-C-terminal) (Homo sapiens, UniProt P51812)
T2 construct: gene RPS6KA3; Kin.Dom.2-C-terminal
Procedure, shortened: as §1

ACVRL1 = ACVRL1 (Homo sapiens, UniProt P37023)
Procedure, shortened: as §1

PCTK3 = target: T3, PCTK3 (Homo sapiens, UniProt Q07002)
T3 construct: gene CDK18
Procedure, shortened: as §1

DDR2 = DDR2 (Homo sapiens, UniProt Q16832)
DDR2, sequence (Q16832 whole entry): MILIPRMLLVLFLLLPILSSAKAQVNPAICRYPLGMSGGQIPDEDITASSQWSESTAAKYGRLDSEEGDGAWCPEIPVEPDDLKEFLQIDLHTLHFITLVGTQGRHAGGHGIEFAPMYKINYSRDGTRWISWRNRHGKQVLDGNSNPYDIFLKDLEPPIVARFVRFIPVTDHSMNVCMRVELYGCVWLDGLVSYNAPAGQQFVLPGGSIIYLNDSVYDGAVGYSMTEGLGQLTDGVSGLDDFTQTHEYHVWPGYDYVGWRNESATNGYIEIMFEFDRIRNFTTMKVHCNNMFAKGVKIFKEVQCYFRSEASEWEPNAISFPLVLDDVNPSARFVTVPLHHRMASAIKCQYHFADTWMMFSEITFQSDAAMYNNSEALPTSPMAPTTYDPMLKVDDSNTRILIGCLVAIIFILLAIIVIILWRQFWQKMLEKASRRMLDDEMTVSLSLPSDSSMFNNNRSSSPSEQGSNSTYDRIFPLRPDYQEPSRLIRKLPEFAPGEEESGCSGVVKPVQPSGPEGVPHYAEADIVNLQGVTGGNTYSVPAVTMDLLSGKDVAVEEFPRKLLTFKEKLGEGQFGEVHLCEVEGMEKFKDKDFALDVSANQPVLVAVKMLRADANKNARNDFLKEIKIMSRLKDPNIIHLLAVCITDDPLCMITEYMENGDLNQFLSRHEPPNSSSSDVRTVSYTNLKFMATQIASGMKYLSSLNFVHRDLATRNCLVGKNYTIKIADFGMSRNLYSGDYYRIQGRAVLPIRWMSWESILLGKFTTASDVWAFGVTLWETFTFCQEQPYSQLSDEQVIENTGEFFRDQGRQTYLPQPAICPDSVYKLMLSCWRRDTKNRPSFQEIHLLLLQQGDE
Procedure, shortened: as §1

TBK1 = TBK1 (Homo sapiens, UniProt Q9UHD2)
Procedure, shortened: as §1

RIOK2 = RIOK2 (Homo sapiens, UniProt Q9BVS4)
RIOK2, sequence (Q9BVS4 whole entry): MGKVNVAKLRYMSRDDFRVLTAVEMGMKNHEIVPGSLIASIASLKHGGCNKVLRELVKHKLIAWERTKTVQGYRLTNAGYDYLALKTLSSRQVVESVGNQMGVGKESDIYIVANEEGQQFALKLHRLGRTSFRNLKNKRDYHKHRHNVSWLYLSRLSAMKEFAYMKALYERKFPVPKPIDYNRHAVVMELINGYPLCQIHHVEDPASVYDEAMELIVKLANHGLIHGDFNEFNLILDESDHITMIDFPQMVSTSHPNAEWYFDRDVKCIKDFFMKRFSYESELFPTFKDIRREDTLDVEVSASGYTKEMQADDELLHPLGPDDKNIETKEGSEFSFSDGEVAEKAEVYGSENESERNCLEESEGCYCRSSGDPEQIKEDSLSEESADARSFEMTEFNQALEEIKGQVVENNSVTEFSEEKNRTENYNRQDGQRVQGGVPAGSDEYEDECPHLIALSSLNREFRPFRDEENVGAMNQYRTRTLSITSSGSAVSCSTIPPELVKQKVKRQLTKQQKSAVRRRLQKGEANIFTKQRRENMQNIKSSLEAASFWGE
Procedure, shortened: as §1

SGK2 = SGK2 (Homo sapiens, UniProt Q9HBY8)
SGK2, sequence (Q9HBY8 whole entry): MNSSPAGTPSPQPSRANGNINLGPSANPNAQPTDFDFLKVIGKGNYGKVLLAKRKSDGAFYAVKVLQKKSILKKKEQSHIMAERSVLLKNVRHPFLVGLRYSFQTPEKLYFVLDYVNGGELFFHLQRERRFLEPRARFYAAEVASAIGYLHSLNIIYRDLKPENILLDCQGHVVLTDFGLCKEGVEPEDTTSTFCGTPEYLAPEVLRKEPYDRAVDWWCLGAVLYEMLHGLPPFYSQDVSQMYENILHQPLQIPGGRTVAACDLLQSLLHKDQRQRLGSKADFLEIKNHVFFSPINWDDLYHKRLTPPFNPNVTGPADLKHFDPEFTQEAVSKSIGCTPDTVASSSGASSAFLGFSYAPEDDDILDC
Procedure, shortened: as §1

CSNK2A2 = CSNK2A2 (Homo sapiens, UniProt P19784)
Procedure, shortened: as §1

FER = FER (Homo sapiens, UniProt P16591)
Procedure, shortened: as §1

KIT(L576P) = KIT(L576P) (Homo sapiens, UniProt P10721, L576P)
Procedure, shortened: as §1

[3] = target: T4, ABL1(H396P)-phosphorylated (Homo sapiens, UniProt P00519, H396P)
T4 construct: phosphorylated
Procedure, shortened: as §1

NDR1 = target: T5, NDR1 (Homo sapiens, UniProt Q15208)
T5 construct: gene STK38
Procedure, shortened: as §1

p38-delta = target: T6, p38-delta (Homo sapiens, UniProt O15264)
T6 construct: gene MAPK13
T6 sequence (O15264 whole entry): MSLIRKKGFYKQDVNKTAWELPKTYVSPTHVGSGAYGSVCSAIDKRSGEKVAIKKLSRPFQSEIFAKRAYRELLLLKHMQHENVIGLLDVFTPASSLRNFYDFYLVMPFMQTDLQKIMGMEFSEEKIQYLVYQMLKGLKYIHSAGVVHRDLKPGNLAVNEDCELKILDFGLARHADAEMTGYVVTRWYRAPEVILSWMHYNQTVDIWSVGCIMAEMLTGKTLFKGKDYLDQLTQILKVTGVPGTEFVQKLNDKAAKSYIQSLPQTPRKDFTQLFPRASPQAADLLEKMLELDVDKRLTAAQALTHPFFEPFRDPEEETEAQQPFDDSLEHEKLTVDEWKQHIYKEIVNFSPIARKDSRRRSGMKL
Procedure, shortened: as §1

PRKCH = PRKCH (Homo sapiens, UniProt P24723)
Procedure, shortened: as §1

ERK2 = target: T7, ERK2 (Homo sapiens, UniProt P28482)
T7 construct: gene MAPK1
Procedure, shortened: as §1

GAK = GAK (Homo sapiens, UniProt O14976)
GAK, sequence (O14976 whole entry): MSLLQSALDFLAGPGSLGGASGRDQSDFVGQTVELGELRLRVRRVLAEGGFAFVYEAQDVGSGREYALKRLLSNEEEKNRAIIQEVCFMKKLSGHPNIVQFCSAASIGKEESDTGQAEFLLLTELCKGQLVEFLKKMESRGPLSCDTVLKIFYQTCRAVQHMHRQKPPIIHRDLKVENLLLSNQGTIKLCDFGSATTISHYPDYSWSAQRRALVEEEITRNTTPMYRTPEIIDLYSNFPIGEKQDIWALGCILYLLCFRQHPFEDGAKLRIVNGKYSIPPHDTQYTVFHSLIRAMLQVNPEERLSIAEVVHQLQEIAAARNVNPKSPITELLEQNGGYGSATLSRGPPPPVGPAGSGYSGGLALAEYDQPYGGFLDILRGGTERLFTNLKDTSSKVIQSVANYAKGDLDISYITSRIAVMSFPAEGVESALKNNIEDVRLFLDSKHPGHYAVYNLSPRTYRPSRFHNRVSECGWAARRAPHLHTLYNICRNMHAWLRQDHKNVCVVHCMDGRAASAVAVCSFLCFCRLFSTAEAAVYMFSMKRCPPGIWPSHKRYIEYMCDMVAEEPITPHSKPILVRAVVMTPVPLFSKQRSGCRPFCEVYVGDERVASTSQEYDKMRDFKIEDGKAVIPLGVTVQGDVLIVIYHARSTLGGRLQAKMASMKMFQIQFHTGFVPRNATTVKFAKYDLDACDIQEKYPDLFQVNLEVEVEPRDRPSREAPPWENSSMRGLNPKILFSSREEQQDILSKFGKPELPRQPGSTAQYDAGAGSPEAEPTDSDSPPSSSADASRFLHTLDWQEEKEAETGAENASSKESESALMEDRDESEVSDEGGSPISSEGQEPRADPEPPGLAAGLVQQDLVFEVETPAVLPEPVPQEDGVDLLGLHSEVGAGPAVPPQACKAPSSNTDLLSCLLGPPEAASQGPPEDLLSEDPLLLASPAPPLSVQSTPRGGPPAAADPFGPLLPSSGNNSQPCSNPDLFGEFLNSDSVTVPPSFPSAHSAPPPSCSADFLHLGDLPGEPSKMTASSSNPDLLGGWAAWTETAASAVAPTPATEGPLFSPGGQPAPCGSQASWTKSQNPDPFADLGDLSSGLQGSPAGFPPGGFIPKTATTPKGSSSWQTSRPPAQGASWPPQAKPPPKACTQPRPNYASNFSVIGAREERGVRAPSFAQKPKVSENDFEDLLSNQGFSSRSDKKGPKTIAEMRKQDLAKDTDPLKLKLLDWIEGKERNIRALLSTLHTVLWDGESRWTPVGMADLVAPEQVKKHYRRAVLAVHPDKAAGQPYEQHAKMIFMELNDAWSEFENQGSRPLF
Procedure, shortened: as §1

SRPK1 = SRPK1 (Homo sapiens, UniProt Q96SB4)
Procedure, shortened: as §1

BRSK1 = BRSK1 (Homo sapiens, UniProt Q8TDC3)
BRSK1, sequence (Q8TDC3 whole entry): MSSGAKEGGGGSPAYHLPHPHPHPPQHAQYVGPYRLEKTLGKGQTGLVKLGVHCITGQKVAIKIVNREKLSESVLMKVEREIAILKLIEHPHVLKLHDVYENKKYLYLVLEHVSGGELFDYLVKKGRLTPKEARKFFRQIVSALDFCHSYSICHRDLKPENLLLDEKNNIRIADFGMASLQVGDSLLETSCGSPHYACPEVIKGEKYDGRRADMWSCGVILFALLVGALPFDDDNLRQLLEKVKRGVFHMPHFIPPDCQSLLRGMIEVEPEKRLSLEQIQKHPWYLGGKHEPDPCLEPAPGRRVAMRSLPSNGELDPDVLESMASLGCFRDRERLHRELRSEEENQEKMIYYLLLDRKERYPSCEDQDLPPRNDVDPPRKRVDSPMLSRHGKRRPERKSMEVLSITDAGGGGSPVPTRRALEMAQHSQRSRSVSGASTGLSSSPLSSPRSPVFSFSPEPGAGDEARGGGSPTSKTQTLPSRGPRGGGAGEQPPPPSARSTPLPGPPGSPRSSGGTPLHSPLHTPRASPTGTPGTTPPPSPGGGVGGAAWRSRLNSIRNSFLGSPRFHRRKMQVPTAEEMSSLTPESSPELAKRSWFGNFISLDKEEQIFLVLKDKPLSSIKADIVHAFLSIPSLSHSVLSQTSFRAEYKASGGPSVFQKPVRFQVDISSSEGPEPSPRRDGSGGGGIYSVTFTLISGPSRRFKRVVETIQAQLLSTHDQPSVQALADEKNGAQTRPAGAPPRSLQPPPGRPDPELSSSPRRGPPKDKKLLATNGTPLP
Procedure, shortened: as §1

EGFR(G719C) = EGFR(G719C) (Homo sapiens, UniProt P00533, G719C)
Procedure, shortened: as §1

[4] = target: T8, JAK2(JH1domain-catalytic) (Homo sapiens, UniProt O60674)
T8 construct: JH1domain-catalytic
Procedure, shortened: as §1

NEK3 = NEK3 (Homo sapiens, UniProt P51956)
Procedure, shortened: as §1

Compound `[O-][S@@+](Cc1cncs1)C(c1ccccc1)c1ccccc1` [S-CE-123, (S)-5-((Benzhydrylsulfinyl)Methyl)Thiazole] has a remaining binding at 2.8 µM (RIOK1) of 77%, a remaining binding at 2.8 µM (CAMK1D) of 96% and a remaining binding at 2.8 µM (ACVR2B) of 100%. It also gave a remaining binding at 2.8 µM [1] of 84%, a remaining binding at 2.8 µM (MYLK2) of 99% and a remaining binding at 2.8 µM [2] of 96%. The remaining binding at 2.8 µM (ACVRL1) was 84%, the remaining binding at 2.8 µM (PCTK3) was 99% and the remaining binding at 2.8 µM (DDR2) was 100%. The remaining binding at 2.8 µM (TBK1) was 100%, the remaining binding at 2.8 µM (RIOK2) was 99% and the remaining binding at 2.8 µM (SGK2) was 100%. The remaining binding at 2.8 µM (CSNK2A2) was 100%, the remaining binding at 2.8 µM (FER) was 100% and the remaining binding at 2.8 µM (KIT(L576P)) was 99%. It also gave a remaining binding at 2.8 µM [3] of 90%, a remaining binding at 2.8 µM (NDR1) of 83% and a remaining binding at 2.8 µM (p38-delta) of 95%. The remaining binding at 2.8 µM (PRKCH) was 100%, the remaining binding at 2.8 µM (ERK2) was 95% and the remaining binding at 2.8 µM (GAK) was 100%. The remaining binding at 2.8 µM (SRPK1) was 92%, the remaining binding at 2.8 µM (BRSK1) was 100% and the remaining binding at 2.8 µM (EGFR(G719C)) was 74%. The remaining binding at 2.8 µM [4] was 100% and the remaining binding at 2.8 µM (NEK3) was 100%.
